Where two headings read alike, the source gives them in different places.
Experiments:
[1] = tested on: Mycoplasma gallisepticum (MG) S6; assay: In vitro sensitivity test (liquid dilution method); type: cell-based; settings: 37°C, 7 days
[2] = tested on: Mycoplasma gallisepticum (MG) T-7-T, TS-resistant strain isolated from the field; assay: In vitro sensitivity test (liquid dilution method); type: cell-based; settings: 37°C, 7 days
[3] = tested on: Mycoplasma hyopneumoniae (Mh) ST-11; assay: In vitro sensitivity test (liquid dilution method); type: cell-based; settings: 37°C, 7 days
[4] = tested on: Mycoplasma synoviae (MS) 1853; assay: In vitro sensitivity test (liquid dilution method); type: cell-based; settings: 37°C, 7 days
Procedure, shortened: (§1)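 Bacteria were of animal origin. MS strains were grown by liquid dilution in Frey medium with 12 % pig-serum and 0.01 % βNAD at 37°C for 7 days. S.au was tested by agar dilution on Mueller Hinton agar, 37°C for 20 to 24 hours. P.pis was grown on 1.5 % NaCl heart infusion agar at 25°C for 40 to 48 hours.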

[5] = tested on: Mycoplasma synoviae (MS) F10-2as; assay: In vitro sensitivity test (liquid dilution method); type: cell-based; settings: 37°C, 7 days
Procedure, shortened: as §1

[6] = tested on: Bordetella bronchiseptica (B.br) ABU-1; assay: In vitro sensitivity test (agar dilution method); type: cell-based; settings: 37°C, 20 to 24 hours
[7] = tested on: Escherichia coli (E.coli) E-17, chicken-origin strain isolated from the field; assay: In vitro sensitivity test (agar dilution method); type: cell-based; settings: 37°C, 20 to 24 hours
Procedure, shortened: (§2)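 MS (liquid dilution): Frey medium + 12 % pig-serum + 0.01 % βNAD, 37°C, 7 days. S.au (agar dilution): Mueller Hinton agar, 37°C, 20 to 24 hours. P.pis: heart infusion agar + 1.5 % NaCl, 25°C, 40 to 48 hours. All strains animal-origin.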

[8] = tested on: Escherichia coli (E.coli) JC-2; assay: In vitro sensitivity test (agar dilution method); type: cell-based; settings: 37°C, 20 to 24 hours
[9] = tested on: Hemophilus paragallinarum (H.pg) 221; assay: In vitro sensitivity test (agar dilution method); type: cell-based; settings: agar dilution, 37°C, 20 hours, 10 % CO₂
[10] = tested on: Hemophilus paragallinarum (H.pg) S-1; assay: In vitro sensitivity test (agar dilution method); type: cell-based; settings: agar dilution, 37°C, 20 hours, 10 % CO₂
[11] = tested on: Hemophilus pleuropneumonia (H.pp) M-1; assay: In vitro sensitivity test (agar dilution method); type: cell-based; settings: 37°C, 20 hours, 10 % CO₂
[12] = tested on: Salmonella typhimurium (S.typhi) 13311; assay: In vitro sensitivity test (agar dilution method); type: cell-based; settings: 37°C, 20 to 24 hours
[13] = tested on: Staphylococcus aureus (S.au) 209P; assay: In vitro sensitivity test (agar dilution method); type: cell-based; settings: 37°C, 20 to 24 hours
Procedure, shortened: as §2

[14] = tested on: Pasteurella piscicida (P.pis) No. 2; assay: In vitro sensitivity test; type: cell-based; settings: 25°C, 40 to 48 hours
Procedure, shortened: as §1

[15] = tested on: Streptococcus sp (Str.sp) SNO6119; assay: In vitro sensitivity test; type: cell-based; settings: 25°C, 40 to 48 hours
[16] = tested on: TS-resistant strain of MG; type: in vivo, chicken; settings: for Infectious index Left air sack + / Infectious index Left air sack ++ / Infectious index Left air sack +++ / Infectious index Left air sack - / Infectious index Right air sack + / Infectious index Right air sack ++ / Infectious index Right air sack +++ / Infectious index Right air sack -: count of fowl; for Infectious index Left air sack + / Infectious index Left air sack ++ / Infectious index Left air sack +++ / Infectious index Left air sack - / Infectious index Right air sack + / Infectious index Right air sack ++ / Infectious index Right air sack +++ / Infectious index Right air sack - / Number of fowl having air sack lesions: 10-days chicken, 1.2 x 10³ CFU/fowl
[17] = tested on: TS-resistant MG; assay: Experimental MG infection to chicken, through injection; type: in vivo; settings: 5 fowl tested, 10-days chicken, 3.1 x 10³ CFU/fowl; for Infectious index Left air sack + (number of fowl) / Infectious index Right air sack + (number of fowl): grade + = slight infection; for Infectious index Left air sack ++ (number of fowl) / Infectious index Right air sack ++ (number of fowl): grade ++ = considerable infection; for Infectious index Left air sack +++ (number of fowl) / Infectious index Right air sack +++ (number of fowl): grade +++ = severe infection; for Infectious index Left air sack - (number of fowl) / Infectious index Right air sack - (number of fowl): grade - = no infection

SMILES: N[C@H]1CCC[C@H]2CN(c3c(F)cc4c(=O)c(C(=O)O)cn(C5CC5)c4c3F)CC[C@H]21 (relative stereo) [I-6]
- In vitro Sensitivity Test MG S6 [1]: 0.00625 µg/mL
- In vitro Sensitivity Test MG T-7-T [2]: 0.00625 µg/mL
- In vitro Sensitivity Test Mh ST-11 [3]: <0.025 µg/mL
- In vitro Sensitivity Test MS 1853 [4]: 0.2 µg/mL
- In vitro Sensitivity Test MS F10-2as [5]: 0.2 µg/ml
- In vitro Sensitivity Test B.br ABU-1 [6]: 3.13 µg/mL
- In vitro Sensitivity Test E.coli E-17 [7]: 0.2 µg/ml
- In vitro Sensitivity Test E.coli JC-2 [8]: 0.1 µg/mL
- In vitro Sensitivity Test H.pg 221 [9]: >1.56 µg/mL
- In vitro Sensitivity Test H.pg S-1 [10]: >1.56 µg/mL
- In vitro Sensitivity Test H.pp M-1 [11]: 0.2 µg/mL
- In vitro Sensitivity Test S.typhi 13311 [12]: 0.2 µg/mL
- In vitro Sensitivity Test S.au 209P [13]: ≦0.0125 µg/ml
- In vitro Sensitivity Test P.pis No. 2 [14]: 0.78 µg/mL
- In vitro Sensitivity Test Str.sp SNO6119 [15]: 0.39 µg/mL
- Infectious index Left air sack + ([16]; oral 3.13 mg/kg): 0
- Infectious index Left air sack ++ ([16]; oral 3.13 mg/kg): 0
- Infectious index Left air sack +++ ([16]; oral 3.13 mg/kg): 0
- Infectious index Left air sack - ([16]; oral 3.13 mg/kg): 5
- Infectious index Right air sack + ([16]; oral 3.13 mg/kg): 0
- Infectious index Right air sack ++ ([16]; oral 3.13 mg/kg): 0
- Infectious index Right air sack +++ ([16]; oral 3.13 mg/kg): 0
- Infectious index Right air sack - ([16]; oral 3.13 mg/kg): 5
- Infectious index Left air sack + ([16]; oral 6.25 mg/kg): 1
- Infectious index Left air sack ++ ([16]; oral 6.25 mg/kg): 0
- Infectious index Left air sack +++ ([16]; oral 6.25 mg/kg): 0
- Infectious index Left air sack - ([16]; oral 6.25 mg/kg): 4
- Infectious index Right air sack + ([16]; oral 6.25 mg/kg): 1
- Infectious index Right air sack ++ ([16]; oral 6.25 mg/kg): 4
- Infectious index Right air sack +++ ([16]; oral 6.25 mg/kg): 0
- Infectious index Right air sack - ([16]; oral 6.25 mg/kg): 0
- Infectious index Left air sack + ([16]; oral 12.5 mg/kg): 0
- Infectious index Left air sack ++ ([16]; oral 12.5 mg/kg): 0
- Infectious index Left air sack +++ ([16]; oral 12.5 mg/kg): 0
- Infectious index Left air sack - ([16]; oral 12.5 mg/kg): 5
- Infectious index Right air sack + ([16]; oral 12.5 mg/kg): 0
- Infectious index Right air sack ++ ([16]; oral 12.5 mg/kg): 4
- Infectious index Right air sack +++ ([16]; oral 12.5 mg/kg): 1
- Infectious index Right air sack - ([16]; oral 12.5 mg/kg): 0
- Number of fowl having air sack lesions ([16]; oral 3.13 mg/kg): 0
- Number of fowl having air sack lesions ([16]; oral 6.25 mg/kg): 5
- Number of fowl having air sack lesions ([16]; oral 12.5 mg/kg): 5
- Number of fowl having air sack lesions ([17]; Dose 1.56 mg/kg): 0
- Infectious index Left air sack + (number of fowl) ([17]; Dose 1.56 mg/kg): 0
- Infectious index Right air sack + (number of fowl) ([17]; Dose 1.56 mg/kg): 0
- Infectious index Left air sack ++ (number of fowl) ([17]; Dose 1.56 mg/kg): 0
- Infectious index Right air sack ++ (number of fowl) ([17]; Dose 1.56 mg/kg): 0
- Infectious index Left air sack +++ (number of fowl) ([17]; Dose 1.56 mg/kg): 0
- Infectious index Right air sack +++ (number of fowl) ([17]; Dose 1.56 mg/kg): 0
- Infectious index Left air sack - (number of fowl) ([17]; Dose 1.56 mg/kg): 5
- Infectious index Right air sack - (number of fowl) ([17]; Dose 1.56 mg/kg): 5
- Number of fowl having air sack lesions ([17]; Dose 3.13 mg/kg): 0
- Infectious index Left air sack + (number of fowl) ([17]; Dose 3.13 mg/kg): 0
- Infectious index Right air sack + (number of fowl) ([17]; Dose 3.13 mg/kg): 0
- Infectious index Left air sack ++ (number of fowl) ([17]; Dose 3.13 mg/kg): 0
- Infectious index Right air sack ++ (number of fowl) ([17]; Dose 3.13 mg/kg): 0
- Infectious index Left air sack +++ (number of fowl) ([17]; Dose 3.13 mg/kg): 0
- Infectious index Right air sack +++ (number of fowl) ([17]; Dose 3.13 mg/kg): 0
- Infectious index Left air sack - (number of fowl) ([17]; Dose 3.13 mg/kg): 5
- Infectious index Right air sack - (number of fowl) ([17]; Dose 3.13 mg/kg): 0

SMILES: NC[C@@]12CCC[C@@H]1CN(c1cc3c(cc1F)c(=O)c(C(=O)O)cn3C1CC1)C2 (relative stereo) [I-8, 7-[(1R*,5S*)-1-aminomethyl-3-azabicyclo[3.3.0]octan-3-yl]-1-cyclopropyl-6-fluoro-1,4-dihydro-4-oxo-3-quinolinecarboxylic acid]
- In vitro Sensitivity Test MG S6 [1]: <0.00313 µg/mL
- In vitro Sensitivity Test MG T-7-T [2]: 0.00625 µg/mL
- In vitro Sensitivity Test Mh ST-11 [3]: <0.025 µg/mL
- In vitro Sensitivity Test MS 1853 [4]: 0.1 µg/mL
- In vitro Sensitivity Test MS F10-2as [5]: 0.1 µg/ml
- In vitro Sensitivity Test B.br ABU-1 [6]: 1.56 µg/mL
- In vitro Sensitivity Test E.coli E-17 [7]: 0.05 µg/ml
- In vitro Sensitivity Test E.coli JC-2 [8]: 0.05 µg/mL
- In vitro Sensitivity Test H.pg 221 [9]: 0.2 µg/mL
- In vitro Sensitivity Test H.pg S-1 [10]: 0.2 µg/mL
- In vitro Sensitivity Test H.pp M-1 [11]: 0.05 µg/mL
- In vitro Sensitivity Test S.typhi 13311 [12]: 0.2 µg/mL
- In vitro Sensitivity Test S.au 209P [13]: <0.0125 µg/mL
- In vitro Sensitivity Test P.pis No. 2 [14]: 0.78 µg/mL
- In vitro Sensitivity Test Str.sp SNO6119 [15]: 0.78 µg/mL
- Infectious index Left air sack + ([16]; oral 1.56 mg/kg): 0
- Infectious index Left air sack ++ ([16]; oral 1.56 mg/kg): 0
- Infectious index Left air sack +++ ([16]; oral 1.56 mg/kg): 0
- Infectious index Left air sack - ([16]; oral 1.56 mg/kg): 5
- Infectious index Right air sack + ([16]; oral 1.56 mg/kg): 3
- Infectious index Right air sack ++ ([16]; oral 1.56 mg/kg): 2
- Infectious index Right air sack +++ ([16]; oral 1.56 mg/kg): 0
- Infectious index Right air sack - ([16]; oral 1.56 mg/kg): 0
- Infectious index Left air sack + ([16]; oral 3.13 mg/kg): 0
- Infectious index Left air sack ++ ([16]; oral 3.13 mg/kg): 0
- Infectious index Left air sack +++ ([16]; oral 3.13 mg/kg): 0
- Infectious index Left air sack - ([16]; oral 3.13 mg/kg): 5
- Infectious index Right air sack + ([16]; oral 3.13 mg/kg): 1
- Infectious index Right air sack ++ ([16]; oral 3.13 mg/kg): 0
- Infectious index Right air sack +++ ([16]; oral 3.13 mg/kg): 0
- Infectious index Right air sack - ([16]; oral 3.13 mg/kg): 4
- Infectious index Left air sack + ([16]; oral 6.25 mg/kg): 0
- Infectious index Left air sack ++ ([16]; oral 6.25 mg/kg): 0
- Infectious index Left air sack +++ ([16]; oral 6.25 mg/kg): 0
- Infectious index Left air sack - ([16]; oral 6.25 mg/kg): 5
- Infectious index Right air sack + ([16]; oral 6.25 mg/kg): 0
- Infectious index Right air sack ++ ([16]; oral 6.25 mg/kg): 0
- Infectious index Right air sack +++ ([16]; oral 6.25 mg/kg): 0
- Infectious index Right air sack - ([16]; oral 6.25 mg/kg): 5
- antimicrobial activity compared with ERFX ([16]; in vivo, po): two times more effective than ERFX
- Number of fowl having air sack lesions ([16]; oral 1.56 mg/kg): 5
- Number of fowl having air sack lesions ([16]; oral 3.13 mg/kg): 1
- Number of fowl having air sack lesions ([16]; oral 6.25 mg/kg): 0
- complete inihibition of the lesions in air sac at a concentration of ([16]; oral administration, MG-infected chicken): about 3.13 mg/kg
